Data as given in patent publication US20250042890A1, “METHIONINE ADENOSYLTRANSFERASE 2a (MAT2A) INHIBITORS AND USES THEREOF” (Insilico Medicine IP Limited, priority 2021, published 2025).
pIC50: −log10 of the molar value.

The molecules below were run against MAT2A (Homo sapiens (Human), UniProt P31153) (assay: MAT2A Biochemical Assay). Settings: Biomol Green readout O.D.620; 1 uM start, 3-fold dilution, 10 doses; read-out: MAT2A enzymatic IC50.
Protocol: Example A: MAT2A Biochemical Assay
Compounds described herein were tested as follows:
• (1). Prepared 1×Assay buffer. • (2). Preparation of compound concentration gradient: the compounds test condition were 1 uM start, 3-fold dilution, 10 doses, singlet or duplicate. 100× concentration compounds were prepared in 384-well plate. Then used Echo 550 to transfer 250 nl to a 384-reaction plate for later use. Added 250 nl of 100% DMSO to the negative and positive control wells. • (3). Prepared 1.67× final concentration enzyme solution with 1×Assay buffer. • (4). Added 15 μl of 1.67× Enzyme solution to the compound wells and positive control wells; added 15 μl of 1 Assay buffer to the negative control wells. • (5). Centrifuged at 1000 rpm for 30 seconds and incubate for 15 minutes. • (6). Prepared 2.5× final concentration Substrate mix solution with 1×Assay buffer. • (7). Added 10 μl of 2.5× final concentration Substrate mix solution to start the reaction. • (8). Centrifuged at 1000 rpm for 30 seconds and incubate for 150 minutes. • (9). Added 50 μl Biomol Green to stop the reaction, centrifuge at 1000 rpm for 30 seconds and incubate for 15 minutes. read O.D.620, process data.
• (1) Using GraphPad Prism 5. • (2) % Inh=(Max signal−Compound signal)/(Max signal−Min signal)*100. • (3) Max signal was obtained from the positive control wells. • (4) Min signal was obtained from the negative control wells.

Sequence of MAT2A (P31153 whole entry, species assumed): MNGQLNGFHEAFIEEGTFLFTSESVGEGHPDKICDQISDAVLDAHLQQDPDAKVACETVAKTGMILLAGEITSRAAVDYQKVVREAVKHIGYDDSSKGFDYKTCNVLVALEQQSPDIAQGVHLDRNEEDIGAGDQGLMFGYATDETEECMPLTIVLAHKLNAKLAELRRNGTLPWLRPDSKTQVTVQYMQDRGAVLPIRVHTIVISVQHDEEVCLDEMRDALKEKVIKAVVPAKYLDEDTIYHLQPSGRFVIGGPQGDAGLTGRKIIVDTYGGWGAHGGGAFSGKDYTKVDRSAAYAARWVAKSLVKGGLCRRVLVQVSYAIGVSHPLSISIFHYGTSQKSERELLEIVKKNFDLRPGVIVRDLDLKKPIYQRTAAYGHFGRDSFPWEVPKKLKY

`C#CC1(Nc2nc(=O)n(-c3cccnc3)c3cc(C(F)(F)F)ccc23)CC1` [Example 67] and `C#CC1(Nc2nc(=O)n(-c3cccnc3)c3cc(Cl)ccc23)CC1` [Example 4] cannot be ordered by pIC50: over 7.30 for the first, over 7.30 for the second.

`C#CC(C)Nc1nc(=O)n(-c2cccnc2)c2cc(Cl)cc(OC)c12` (centres unmarked) [Example 65] and `C#CCNc1nc(=O)n(-c2cccnc2)c2cc(Cl)cc(OC)c12` [Example 20, 7-chloro-5-methoxy-4-(prop-2-yn-1-ylamino)-1-(pyridin-3-yl)quinazolin-2 (1H)-one] cannot be ordered by pIC50: over 7.30 for the first, over 7.30 for the second.

First: C#CC1CCN(c2nc(=O)n(-c3ccccc3Cl)c3cc(Cl)ccc23)CC1 [Example 13, 7-chloro-1-(2-chlorophenyl)-4-(4-ethynylpiperidin-1-yl)quinazolin-2 (1H)-one]
Second: C#CCCNc1nc(=O)n(-c2ccccc2Cl)c2cc(Cl)ccc12 [Example 8, 4-(but-3-yn-1-ylamino)-7-chloro-1-(2-chlorophenyl)quinazolin-2 (1H)-one]
The pIC50 of the first is lower: under 6.00 for the first, over 7.30 for the second. The second is the more potent here.

Going from `C#CC1(Nc2nc(=O)n(-c3cccnc3)c3cc(C(F)(F)F)cnc23)CC1` [Example 56, 4-((1-ethynylcyclopropyl)amino)-1-(pyridin-3-yl)-7-(trifluoromethyl)pyrido[3,2-d]pyrimidin-2 (1H)-one] to `C#CC1(Nc2nc(=O)n(-c3cccnc3)c3cc(C(F)(F)F)cc(OC)c23)CC1` [Example 47, 4-((1-ethynylcyclopropyl)amino)-5-methoxy-1-(pyridin-3-yl)-7-(trifluoromethyl)quinazolin-2 (1B)-one], the pIC50 rises from under 6.00 to over 7.30. The second is the more potent here.

`C#CCNc1nc(=O)n(-c2cccnc2)c2cc(C(F)(F)F)cc(OCF)c12` [Example 38, 5-(fluoromethoxy)-4-(prop-2-yn-1-ylamino)-1-(pyridin-3-yl)-7-(trifluoromethyl)quinazolin-2 (1H)-one] and `C#CC(C)Nc1nc(=O)n(-c2cccnc2)c2cc(C(F)(F)F)cc(OC)c12` (centres unmarked) [Example 35, 4-(but-3-yn-2-ylamino)-5-methoxy-1-(pyridin-3-yl)-7-(trifluoromethyl)quinazolin-2 (1H)-one] cannot be ordered by pIC50: over 7.30 for the first, over 7.30 for the second.

`C#CCNc1nc(=O)n(-c2cccnc2C(C)C)c2cc(C(F)(F)F)ccc12` [Example 45, 1-(2-isopropylpyridin-3-yl)-4-(prop-2-yn-1-ylamino)-7-(trifluoromethyl)quinazolin-2 (1H)-one] and `C#CCNc1nc(=O)n(-c2c(C)ccnc2C)c2cc(C(F)(F)F)ccc12` [Example 52, 1-(2,4-dimethylpyridin-3-yl)-4-(prop-2-yn-1-ylamino)-7-(trifluoromethyl)quinazolin-2 (11H)-one] cannot be ordered by pIC50: over 7.30 for the first, over 7.30 for the second.

`C#CC1(Nc2nc(=O)n(-c3cccnc3C)c3cc(C(F)(F)F)cc(OC)c23)CC1` [Example 49] and `C#CC1(Nc2nc(=O)n(-c3cccnc3C)c3cc(C(F)(F)F)cc(OC)c23)CCC1` [Example 50] cannot be ordered by pIC50: over 7.30 for the first, over 7.30 for the second.

`C#CCNc1nc(=O)n(-c2nccnc2C)c2cc(C(F)(F)F)cc(OC)c12` [Example 48, 5-methoxy-1-(3-methylpyrazin-2-yl)-4-(prop-2-yn-1-ylamino)-7-(trifluoromethyl)quinazolin-2 (1H)-one] and `C#CCNc1nc(=O)n(-c2nccnc2C)c2cc(Cl)cc(OC)c12` [Example 23, 7-chloro-5-methoxy-1-(3-methylpyrazin-2-yl)-4-(prop-2-yn-1-ylamino)quinazolin-2 (1H)-one] cannot be ordered by pIC50: over 7.30 for the first, over 7.30 for the second.

`C#CCNc1nc(=O)n(-c2cccnc2C)c2cc(C(F)(F)F)cc(OC(F)F)c12` [Example 40, 5-(difluoromethoxy)-1-(2-methylpyridin-3-yl)-4-(prop-2-yn-1-ylamino)-7-(trifluoromethyl)quinazolin-2 (1l)-one] and `C#CCNc1nc(=O)n(-c2cccnc2C)c2cc(Cl)cc(F)c12` [Example 30, 7-chloro-5-fluoro-1-(2-methylpyridin-3-yl)-4-(prop-2-yn-1-ylamino)quinazolin-2 (1H)-one] cannot be ordered by pIC50: over 7.30 for the first, over 7.30 for the second.

`C#CCNc1nc(=O)n(-c2cccnc2C)c2nc(C(F)(F)F)cc(OC)c12` [Example 42, 5-methoxy-1-(2-methylpyridin-3-yl)-4-(prop-2-yn-1-ylamino)-7-(trifluoromethyl)pyrido[2,3-d]pyrimidin-2 (1H)-one] and `C#CCNc1nc(=O)n(-c2cccnn2)c2nc(C(F)(F)F)ccc12` [Example 63, 4-(prop-2-yn-1-ylamino)-1-(pyridazin-3-yl)-7-(trifluoromethyl)pyrido[2,3-d]pyrimidin-2 (1H)-one] cannot be ordered by pIC50: over 7.30 for the first, over 7.30 for the second.

`C=CCNc1nc(=O)n(-c2cccnc2)c2cc(Cl)ccc12` [Example 5, 4-(allylamino)-7-chloro-1-(pyridin-3-yl)quinazolin-2 (1H)-one] and `C#CCNc1nc(=O)n(-c2cccnc2)c2cc(Cl)ccc12` [Example 1, 7-chloro-4-(prop-2-yn-1-ylamino)-1-(pyridin-3-yl)quinazolin-2 (1H)-one] cannot be ordered by pIC50: over 7.30 for the first, over 7.30 for the second.

`C#CCNc1nc(=O)n(-c2cnccn2)c2cc(C(F)(F)F)ccc12` [Example 53, 4-(prop-2-yn-1-ylamino)-1-(pyrazin-2-yl)-7-(trifluoromethyl)quinazolin-2 (1H)-one] and `C#CC(C)Nc1nc(=O)n(-c2cccnc2)c2cc(C(F)(F)F)ccc12` (centres unmarked) [Example 64] cannot be ordered by pIC50: over 7.30 for the first, over 7.30 for the second.

`C#CC1(Nc2nc(=O)n(-c3cnccn3)c3cc(Cl)cc(OC)c23)CC1` [Example 24, 7-chloro-4-((1-ethynylcyclopropyl)amino)-5-methoxy-1-(pyrazin-2-yl)quinazolin-2 (1H)-one] and `C#CC1(Nc2nc(=O)n(-c3cccnc3)c3cc(Cl)cc(OC)c23)CC1` [Example 66] cannot be ordered by pIC50: over 7.30 for the first, over 7.30 for the second.

`O=c1nc(NCC#CCN2CCOCC2)c2ccc(C(F)(F)F)cc2n1-c1cccnc1` [Example 14, 4-((4-morpholinobut-2-yn-1-yl)amino)-1-(pyridin-3-yl)-7-(trifluoromethyl)quinazolin-2 (1H)-one] and `C=CCNc1nc(=O)n(-c2cccnc2)c2cc(C(F)(F)F)ccc12` [Example 76] cannot be ordered by pIC50: over 7.30 for the first, over 7.30 for the second.

`C#CCN(C)c1nc(=O)n(-c2cccnc2)c2cc(C(F)(F)F)ccc12` [Example 51] and `C#CCNc1nc(=O)n(-c2cccnc2)c2cc(Br)ccc12` [Example 18, 7-bromo-4-(prop-2-yn-1-ylamino)-1-(pyridin-3-yl)quinazolin-2 (1H)-one] cannot be ordered by pIC50: over 7.30 for the first, over 7.30 for the second.

`C#CCNc1nc(=O)n(-c2cccnc2)c2nc(C(F)(F)F)ncc12` [Example 61, 4-(prop-2-yn-1-ylamino)-1-(pyridin-3-yl)-7-(trifluoromethyl)pyrimido[4,5-d]pyrimidin-2 (1H)-one] and `C#CCNc1nc(=O)n(-c2cccnc2C)c2cc(Cl)ccc12` [Example 15, 7-chloro-1-(2-methylpyridin-3-yl)-4-(prop-2-yn-1-ylamino)quinazolin-2 (1H1)-one] cannot be ordered by pIC50: over 7.30 for the first, over 7.30 for the second.

`C#CC1(Nc2nc(=O)n(-c3cccnc3C)c3cc(Cl)cc(F)c23)CC1` [Example 31, 7-chloro-4-((1-ethynylcyclopropyl)amino)-5-fluoro-1-(2-methylpyridin-3-yl)quinazolin-2 (11H)-one] and `C=CCNc1nc(=O)n(-c2cccnc2)c2cc(Cl)cc(OC)c12` [Example 73] cannot be ordered by pIC50: over 7.30 for the first, over 7.30 for the second.

For `O=c1nc(NCC#CC2CC2)c2ccc(Cl)cc2n1-c1cccnc1` [Example 2, 7-chloro-4-((3-cyclopropylprop-2-yn-1-yl)amino)-1-(pyridin-3-yl)quinazolin-2 (1H)-one], the pIC50 was over 7.30.
